{"source": "patent US20030022889A1", "about": "“Method for providing neuro-protective effects” (priority 1997, published 2003)", "key": {"[1]": {"system": "muscarinic cholinergic receptor", "test": "pharmacological studies, muscarinic cholinergic receptor activity"}, "[2]": {"target": "T1, 5-HT1C receptor (Homo sapiens, UniProt P28335)", "T1 sequence (P28335 33-458)": "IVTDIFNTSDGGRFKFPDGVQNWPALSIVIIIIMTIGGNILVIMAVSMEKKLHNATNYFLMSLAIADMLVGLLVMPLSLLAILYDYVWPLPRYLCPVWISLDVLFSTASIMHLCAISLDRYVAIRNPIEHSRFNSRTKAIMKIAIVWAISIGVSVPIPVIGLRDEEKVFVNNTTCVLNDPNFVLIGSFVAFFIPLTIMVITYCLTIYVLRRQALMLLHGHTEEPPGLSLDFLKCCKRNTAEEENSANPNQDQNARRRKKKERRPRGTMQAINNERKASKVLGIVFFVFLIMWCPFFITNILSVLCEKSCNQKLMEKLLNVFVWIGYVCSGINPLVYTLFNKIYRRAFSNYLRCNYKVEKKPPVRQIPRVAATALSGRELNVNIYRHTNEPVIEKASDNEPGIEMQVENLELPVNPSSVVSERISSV", "test": "pharmacological studies, 5-HT1C receptor activity"}, "[3]": {"system": "formation of lipid peroxides", "test": "Lipid Peroxidation Test", "conditions": "test protocol of Aruoma, et al. (1990)"}, "[4]": {"system": "ischemia-induced neuronal cell damage (CA1 pyramidal cell layer of the hippocampus)", "test": "Cerebral Ischemia Model in Rats", "assay_type": "in vivo, Male Wistar rats", "conditions": "\"such experiments\"; the sentence does not name a specific test", "from_the_text": "Cerebral ischemia is produced in rats by occluding the four arteries that supply blood to the brain according to the following procedure. Male Wistar rats are anesthetized with Metofane and placed into a stereotaxic instrument. A longitudinal incision is made on the dorsal surface of the neck. The neck muscles are reflected to expose the dorsal surface of the spinal column. The two vertebral arteries are exposed where they pass through the first cervical vertebra. Both arteries are permanently occluded by the application of electrocautery. After coagulation of the vertebral arteries, the rat is removed from the stereotaxic instrument and the surgical wound is sutured. Two longitudinal incisions are then made on the ventral surface of the neck. The two common carotid arteries are exposed and dissected free from surrounding nerves and connective tissue. An atraumatic clasp, fabricated mainly from silicone rubber tubing, is placed around each carotid artery in a manner such that the vessel is not traumatized or occluded. An indwelling jugular cannula is implanted into each rat for drug delivery. The surgical wounds are then closed. […]\nDamage in 4 sections of the dorsal hippocampus from each brain is assessed in order to obtain an accurate estimate of damage. An average damage score is calculated for each treatment group. […] The level of significance is determined using the Mann Whitney-U-test."}}}
{"smiles": "Cc1cc2c(s1)Nc1ccccc1N=C2N1CCN(C)CC1", "note": "[olanzapine, 2-methyl-4-(4-methyl-1-piperazinyl)-10H-thieno[2,3-b] [1,5] benzodiazepine]", "values": [{"measurement": "muscarinic cholinergic receptor activity", "setting": "[1]", "value": "has muscarinic cholinergic receptor activity"}, {"measurement": "activity at the 5-HT1C receptor", "setting": "[2]", "value": "active"}, {"measurement": "inhibition of the formation of lipid peroxides", "setting": "[3]", "value": "inhibit the formation of lipid peroxides"}, {"measurement": "neuro-protective effect", "setting": "[4]", "value": "significant neuro-protective effect"}]}
